Key:
[1] = test system: SMAD2/3; assay: SMAD firefly luciferase TGF-β reporter assay in IPF-LL29 cells; assay type: cell-based, human; settings: TGF-β 5 ng/ml, 24 hour
Method: IPF-LL29, IPF-LL97A, and human lung fibroblast LL47 cell lines were purchased from ATCC. Mouse lung fibroblasts were isolated from the lungs of male C57BL/6J mice. Cells were grown at 37° C. under 5% CO2, 95% ambient atmosphere and maintained in Dulbecco's […] (DMEM) supplemented with 10% FBS (Sigma) and 1% Penn Strep.
FIG. 1A. A TGF-β reporter cell line was generated by transducing a SMAD firefly luciferase reporter (Cellomics Tech, Cat #PLV-10099-50) into IPF-LL29 cells. […] 24 hours later, luciferase substrate was added to the cells and luciferase signal was measured by Bright-Glo reagent (Promega) using a luminescent plate reader. The intensity of the signal correlates with the activity of SMAD2/3.

[2] = test system: bleomycin-induced lung fibrosis; assay: Bleomycin-induced lung fibrosis mouse model; assay type: in vivo
Method: FIG. 6B: Male C57BL/6J mice between 7-10 week old were used in the study. A single dose of 50 IU of bleomycin was given to mouse lung via oropharyngeal aspiration to induce lung fibrosis. […] Mice were sacrificed on Day 28 after bleomycin treatment. Lungs were either snap frozen or fixed in 10% formalin and stained for H&E and Masson Trichrome.
FIG. 6C: H&E and Masson Trichrome staining were evaluated and scored by a board-certified veterinary pathologist.
(§1) FIG. 7A: Total protein was extracted from the snap frozen lung tissue in T-PER™ Tissue Protein Extraction Reagent by Omni Bead Ruptor homogenizer. Changes in collagen I and the phosphorylation levels of indicated proteins were detected in the lung homogenates from the bleomycin in vivo studies by reverse-phase protein array.
FIG. 7B: pSTAT3 levels were detected in the fixed lung tissue by immunohistochemistry. Intensity of staining was quantified by HALO imaging software.
(§2) FIG. 8: Total RNA was extracted from the snap frozen lung tissue in TRIzol™ Reagent by Omni Bead Ruptor homogenizer. 1 μg of total RNA was reverse transcribed into first-strand cDNA using an RT2 First Strand Kit (QIAGEN). The resultant cDNA was subjected to qPCR using indicated mouse primers to measure the changes in mRNA expression of indicated mouse genes.
A single dose of 25-50 IU of bleomycin was given to mouse lung via oropharyngeal aspiration to induce lung fibrosis. […] Lungs were processed and stained for H&E and Masson Trichrome.

[3] = test system: CCl4-induced fibrosis; assay: Carbon tetrachloride (CCl4)-induced liver fibrosis mouse model; assay type: in vivo; settings: vs CCl4-only treated mouse livers tissues; RPPA, IHC
[4] = test system: TGF-β activity in LX2 cells; assay: SMAD2/3 luciferase reporter assay of TGF-β activity in LX2 cells; assay type: cell-based, human
Source text: In preliminary studies, a well-established, culture-activated human hepatic stellate cell model (LX2, initially established by Scott Friedman as described in Xu, L. et al., Human hepatic stellate cell lines, LX-1 and LX-2: new tools for analysis of hepatic fibrosis. Gut 54, 142-151 (2005), incorporated herein by reference in its entirety) was used and a set of 32 computationally chosen, broad-specific kinase inhibitors that collectively target a broad range of kinases were screened. Each drug was examined at eight concentrations, and its effect on the activity of TGF-β (measured by SMAD2/3 luciferase reporter) and on aHSC cell viability was scored. 1536 data points were then analyzed to develop regression modeling to predict the response to >400 drugs (FIG. 9A). […] (FIG. 9B).
(§3) LX2 cells were obtained from Sigma Aldrich (Cat #SCC064). LX2 cells were grown at 37° C. under 5% CO2, 95% ambient atmosphere and maintained in Dulbecco's […] (DMEM) supplemented with 10% FBS (Sigma) and 1% Penn Strep.

[5] = test system: LX2 cells; assay: Live cell wound healing assay in LX2 cells; assay type: cell-based, human; settings: 1 μM; TGFb 6.5 ng/ml; wound closure density at 50 hour
Method: as §3
FIG. 10A: LX2 cells were plated on 96-well plates (Essen Image Lock, Essen Instruments). […] Wound closure was monitored with Incucyte Live-Cell Imaging System and software (Essen Instruments) every 2-4 hours for 72 hours. The mean relative wound density of at least three biological replicates was calculated. The wound density correlates with the cell motility. Plotted is the wound closure density at 50 hour.

[6] = test system: IPF lung fibroblasts; assay: Collagen contraction assay in lung fibroblasts; assay type: cell-based, human
Method: FIG. 5B: LL-47 cells were cultured in a collagen gel solution in 24-well plate. […] After 24 hours, cell contraction was initiated by releasing the collagen gels from the sides of the culture dishes. The collagen gel size change (contraction index) was measured at various times and quantified with Image Lab.
FIG. 5C: same method as outlined in FIG. 5B. IPF-LL29 and IPF-LL97A cells were cultured in a collagen gel solution. 24 hours later, TGF-β alone or together with indicated drugs was added for 24 hours before cell contraction was initiated. Images shown here were taken 120 hours after the initiation of cell contraction.

[7] = test system: CCl4-induced fibrosis; assay: Carbon tetrachloride (CCl4)-induced liver fibrosis mouse model; assay type: in vivo
Method: FIGS. 11A and 11B. Male C57BL/6J mice between 6-8 week old were used in the study. Mice were treated with intraperitoneal injection of 0.5 μl carbon tetrachloride (CCl4) per gram body weight, dissolved in corn oil at a ratio of 1:3, twice a week (Tuesdays and Saturdays) for 5.5 weeks or corn oil control only. […] At the end of the study, livers were either snap frozen or fixed in 10% formalin and stained for H&E, Masson Trichrome (FIG. 11A) and Ki67 (FIG. 11B).
as §2, with “Total” for “FIG. 8: Total”, “liver” for “lung”, “genes (FIG. 11A and FIG. 11C).” for “genes.”
as §1, with “12A:” for “7A:”, “liver” for “lung”, “in” for “in collagen I and”, “CCl4” for “bleomycin”
FIG. 12B: pSTAT3 levels were detected in the fixed […] tissue by immunohistochemistry. Intensity of staining was quantified by HALO imaging software.

## NC(=O)c1c(OCc2c(F)cc(Br)cc2F)nsc1NC(=O)NCCCCN1CCCC1 [OSI-632, 3-(4-bromo-2,6-difluoro-benzyloxy)-5-[3-(4-pyrrolidin-1-yl-butyl)-ureido]-isothiazole-4-carboxylic acid amide]
[1]
  SMAD2/3 activity (luciferase reporter, dose response): inhibited SMAD2/3 activity
[2]; 50 mg/kg oral, once a day Monday to Friday for 2 weeks, mice
  lung fibrosis, scoring of H&E and Masson Trichrome staining by veterinary pathologist: significantly decreased lung fibrosis
[2]; bleomycin mouse model
  lung inflammation, scoring of H&E and Masson Trichrome staining: significantly decreased
[2]; bleomycin mouse model, OSI-632 treatment
  overall survival: 100%
[2]; vs bleomycin only treated mice, 50 mg/kg
  collagen deposition (Masson trichome staining): significant reduction
[2]; vs bleomycin-only treated mouse lung tissues, RPPA, IHC
  phosphorylation of Src, Erk, JNK, S6, Nfκβ, and pSTAT3 in lung: significantly decreased
[2]; vs bleomycin-only treated mouse lung tissues, RPPA, qPCR
  bleomycin-induced collagen levels and pro-fibrotic factors Fn1, IL-6 and IL-1b in lung: significantly decreased
[3]
  CCl4-induced phosphorylation of Smad2, Pdgfrb, Fgfr, Src, Nfκβ, and STAT3: significantly decreased
[4]; Homo sapiens, LX-2, SMAD2/3 luciferase reporter
  IC50: 13.7 nM
[4]; LX2 cells
  block of TGF-β activity compared with galunisertib and pirfenidone: outperformed
[5]
  TGF-β-induced motility of LX2 cells: significantly decreased
[6]; 0.5 or 1 mM OSI-632 as printed, TGF-β-stimulated
  contractility in collagen contraction assay: significantly decreased contractility
[6]; collagen contraction assay, IPF-LL29 and IPF-LL97A cells, 120 hours
  inhibition of motility and contraction compared with nintedanib or pirfenidone: significantly outperforms inhibition by nintedanib or pirfenidone
[7]; 80 mg/Kg thrice/week oral gavage, 3 weeks, mice, preliminary data
  carbon tetrachloride (CCl4)-induced fibrosis: significant decrease
[7]; livers treated with OSI-632
  hepatocyte regeneration measured by Ki67 staining: increased hepatocyte regeneration
[7]; mouse liver, qPCR
  CCl4-induced expression of HSC activation marker Acta2 and proliferation stimuli such as Tgfb2: reverse
  reversal of CCl4-induced expression of Loxl1: 2 fold
  reversal of CCl4-induced expression of Timp1: 5 fold
  reversal of CCl4-induced expression of Timp2: 2 fold
  reversal of CCl4-induced expression of Timp3: ~2 fold
[7]; vs CCl4-only treated controls
  mRNA expression of Col1a1 (qPCR) and protein level of collagen 1 (RPPA), liver: significantly decreased
[7]; vs CCl4 only treated mice
  collagen deposition (Masson trichome staining), liver: significant reduction
